Measured values from patent US10174013B2, “Benzimidazole derivatives as kinase inhibitors” (SELVITA S.A., priority 2012, dated 2019).
Where a name gives a salt, the structure may show the parent alone.

Tests used:
MOLM-16 = assay: Combination study with anti-cancer agents, cell viability, MOLM-16; conditions: for Effect of combination: MOLM-16 (Acute myeloid leukemia), 72 hours
Description: (§2) After this incubation, a cell viability assay was carried out according to the Manufacturer's instructions (CellTiter 96®AQueous Non-Radioactive Cell Proliferation Assay, Promega). The results were expressed as percentage of viable cells upon treatment with the individual drugs or the combination compared to the vehicle (DMSO) treated cells.

FLT3(ITD) = FLT3(ITD) (Homo sapiens, UniProt P36888, ITD); assay: Binding to FLT3(ITD) mutant (DiscoveRx)
Description: (§1) Selected compounds were also tested for their binding properties against FLT3 kinase mutants using suitable in vitro assays (performed according to standard assays at DiscoveRx Corporation). The compounds show strong binding to the main oncogenic mutants of the FLT3 kinase, see Table 1B.

MOLM16 xenograft = MOLM16 xenograft in immunocompromised mice; type: in vivo; conditions: 100 mg/Kg QD
Excerpt: Several compounds of the present invention have been studied in a xenograft in mice, an in vivo tumor transplantation model used to investigate the factors involved in malignant transformation, invasion and metastasis, as well as to examine response to therapy. For the purpose of acceptance of donor leukemic cells (MV4-11 or MOLM16 cells), immunocompromised mice were used, namely particularly severely compromised immunodeficient mice (NOD/scid, SCID/beige). When tumors developed size of approx. 50-200 mm^3, the compounds as indicated below in Tables 3 and 3a were administered orally every day for 2-3 weeks, in once a day (QD) or twice a day (BID) schedule. During the course of the experiment, the mice were monitored and the following two parameters were measured: the tumor growth inhibition (TGI) factor as a measure of therapeutic efficacy and the body weight change (ΔBW) factor as a measure of possible compound toxicity. The results are depicted in Tables 3 and 3a.
Additionally, compound 2A, together with other examples was tested in MOLM16 cells xenografted into immunocompromised mice.

[1] = system: Pim kinase biomarkers in MV4-11 cells; assay: Pim-kinase biomarkers in MV4-11 cells; type: cell-based, Human; conditions: 0.25-5 μM, 4 and 24 h
Description: The efficacy of compounds 1A and 2A on Pim kinase-inhibition was tested in MV4-11 cells (see above). Cells were treated with each compound at concentrations of 0.25, 0.5, 1, 2.5 and 5 μM for 4 and 24 h. The positive control Ref A (the commercially available inhibitor SGI-1776 [obtained from Selleck Bio]) was used at a concentration of 5 μM. DMSO (Dimethyl sulfoxide) was used as a negative control. The levels of the following classical Pim-1 kinase biomarkers were assessed: c-Myc, phospho-4EBP1 (Ser65, Thr37&46) and phosphorylated S6 (Ser235). […] Also, the levels of pro-apoptotic and pro-survival biomarkers were assessed. First, induction of apoptosis, recognizable as an appearance and increased expression of cleaved form of the PARP protein, was observed, both at 4 and 24 hours after compound stimulation at high concentrations. […] Levels of tubulin were assessed as a reference loading control.
The efficacy of compound 1BI on Pim kinase-inhibition was tested in MV4-11 cells. The cells were treated with compound 1BI at concentrations of 0.25, 0.5, 1, 2.5 and 5 μM for 4 and 24 h. The positive controls Ref. A (SGI-1776, see above) and Ref. B (the commercially available inhibitor Sunitinib [obtained from Ark Pharm]) were used at 5 μM concentration. DMSO (Dimethyl sulfoxide) was used as a negative control. The levels of the following classical Pim-1 kinase biomarkers were assessed: c-myc, phospho-4EBP1 (Ser65, Thr37&46) and phosphorylated S6 (Ser235/236). […] The levels of pro-apoptotic and pro-survival biomarkers were also assessed. […] Levels of tubulin were assessed as a reference loading control.

[2] = system: Pim kinase biomarkers in MOLM16 cells; assay: Pim-kinase biomarkers in MOLM16 cells; type: cell-based, Human; conditions: 0.1-2.5 μM, 4 and 24 h
Description: The efficacy of compound 1BI on Pim kinase-inhibition was also tested in MOLM16 cells (an acute myeloid leukemia cell line). The cells were treated with compound 1BI at concentrations of 0.1, 0.25, 0.5, 1 and 2.5 μM for 4 and 24 h. The positive controls Ref. A (SGI-1776, see above) and Ref. B (Sunitinib, see above) were used at 5 μM concentration. DMSO (Dimethyl sulfoxide) was used as a negative control. The levels of the following classical Pim-1 kinase biomarkers were assessed: c-myc, phospho-4EBP1 (Scr65, Thr37&46) and phosphorylated S6 (Scr235/236). […] The levels of a pro-apoptotic biomarker were assessed; induction of apoptosis, presented as an appearance and increased expression of cleaved form of PARP protein, was observed. Levels of tubulin were assessed as a reference loading control.

U-937 = assay: Combination study with anti-cancer agents, cell viability, U-937; conditions: for Effect of combination: 72 hours
Description: as §2

FLT3wt = FLT3wt (Homo sapiens (Human), UniProt P36888); assay: Binding to FLT3 wildtype (DiscoveRx)
FLT3(D835Y) = FLT3(D835Y) (Homo sapiens (Human), UniProt P36888, D835Y); assay: Binding to FLT3(D835Y) mutant (DiscoveRx)
Description: as §1

FLT3(D835H) = FLT3(D835H) (Homo sapiens (Human), UniProt P36888, D835H); assay: Binding to FLT3(D835H) mutant (DiscoveRx)
Description: as §1

Mino = assay: Combination study with anti-cancer agents, cell viability, Mino
Description: as §2

PC3 = assay: Combination study with anti-cancer agents, cell viability, PC3; conditions: for Effect of combination: 72 hours
Description: as §2

HEL-92 = assay: Combination study with anti-cancer agents, cell viability, HEL-92; conditions: for Effect of combination: 72 hours
Description: as §2

[3] = single agent, used as fixed concentration in combination study

CC(C)n1c(C2CCNCC2)nc2c([N+](=O)[O-])c(Br)c(Br)cc21 [Example 26A, 5,6-dibromo-4-nitro-2-(piperidin-4-yl)-1-(propan-2-yl)-1H-1,3-benzodiazole]
ED50 value in MOLM-16 (MOLM-16; [3]): 0.4 µM
Effect of combination (MOLM-16; with C (Cytarabine)): Synergistic
Effect of combination (MOLM-16; with V (Vosaroxin)): Synergistic

CC(C)n1c(N2CCNCC2)nc2c([N+](=O)[O-])c(Br)c(Br)cc21 [Example 2A, 5,6-dibromo-4-nitro-2-(piperazin-1-yl)-1-(propan-2-yl)-1H-1,3-benzodiazole hydrochloride]
Kd (FLT3(ITD)): 0.018 µM
ΔBW (body weight change) (MOLM16 xenograft): −8.6%
TGI (tumor growth inhibition) (MOLM16 xenograft; hydrochloride): >99%

CC(C)n1c(N2CC[C@@H](N)C2)nc2c(C#N)c(Br)c(Br)cc21 [Example 1BI]
Mcl-1 pro-survival protein level [1]: dosed-dependent protein down-regulation
induction of apoptosis (cleaved form of PARP protein) [1]: observed in the highest concentration at 4 hours
levels of c-myc protein [1]: down-regulated
levels of phosphorylated 4EBP1 (Ser65, Thr37&46) [1]: down-regulated
levels of phosphorylated S6 [1]: diminished almost completely
levels of phosphorylated p44/42 (Erk1/2), Flt3 biomarker [1]: downregulated
induction of apoptosis (cleaved form of PARP protein) [2]: observed
levels of c-myc protein [2]: downregulated
levels of phosphorylated 4EBP1 (Ser65 and Thr37/46) [2]: downregulated
levels of phosphorylated S6 [2]: diminished completely

CCn1c(N2CCNCC2)nc2c([N+](=O)[O-])c(Br)c(Br)cc21 [Example 1A, 5,6-dibromo-1-ethyl-4-nitro-2-(piperazin-1-yl)-1H-1,3-benzodiazole hydrochloride]
ED50 value in U-937 (U-937; [3]): 6.64 µM
Effect of combination (U-937; with ABT737, U937 (Histiocytic lymphoma)): Synergistic
Effect of combination (U-937; with Obatoclax, U937 (Histiocytic lymphoma)): Synergistic
Kd (FLT3(ITD)): 0.074 µM
Mcl-1 pro-survival protein level [1]: dosed-dependent protein down-regulation
induction of apoptosis (cleaved form of PARP protein) [1]: observed
levels of c-myc protein [1]: downregulated
levels of phosphorylated 4EBP1 (Ser65, Thr37&46) [1]: downregulated
levels of phosphorylated S6 [1]: downregulated
levels of phosphorylated p44/42 (Erk1/2), Flt3 biomarker [1]: downregulated
Kd (FLT3wt): 0.4 µM
Kd (FLT3(D835Y)): 0.046 µM
Kd (FLT3(D835H)): 0.12 µM
ED50 value in Mino (Mino; [3]): 1.7 µM
Effect of combination (Mino; with PD0332991, Mino (Mantle cell lymphoma), 72 hours): Synergistic
ED50 value in PC3 (PC3; [3]): 2.91 µM
Effect of combination (PC3; with CAL-101, PC3 (Prostate cancer)): Synergistic
Effect of combination (PC3; with GDC-0941, PC3 (Prostate cancer)): Synergistic/
Effect of combination (PC3; with Rapamycin, PC3 (Prostate cancer)): Synergistic
Effect of combination (PC3; with Wortmannin, PC3 (Prostate cancer)): Synergistic
ED50 value in HEL-92 (HEL-92; [3]): 5.46 µM
Effect of combination (HEL-92; with CP690550, HEL92 (Erythroleukemia)): Synergistic
Effect of combination (HEL-92; with Cyt387, HEL92 (Erythroleukemia)): Synergistic
Effect of combination (HEL-92; with Ruxolitinib, HEL92 (Erythroleukemia)): Synergistic/
